# Source: US11447482B1, “Imidazopyridine and oxazolopyridine derivatives and analogs thereof, methods of preparation thereof, methods of HIF-2A pathway inhibition, and induction of ferroptosis” (KUDA Therapeutics, Inc., priority 2019, dated 2022)
# Several values for one entry are separate records, joined by “and”; a condition that tells them apart may be missing. Equal values may be shown once. Read-outs that look alike come from different tables or passages of the source.
# Experiments:
# [1] = tested on: HIF-2α; assay: Western blot of treated 786-0 cells: HIF-2α; type: cell-based, human; conditions: 786-0 CCRCC cells, 24 hours
# Method: (§1) Western blots were performed to determine the effects of the compounds on levels of HIF-2α and other relevant proteins. 786-0 (pVHL deficient clear cell kidney cancer cells) were purchased from ATCC were plated at 1×10E5 cells/well in 2 ml DMEM with 10% FBS/well in 6-well tissue culture plates. Cells were allowed to adhere overnight in a humidified incubator at 37° C. with 5% CO2, after which the appropriate concentrations of compounds in DMSO were added. DMSO concentrations were kept constant in all wells. After 24 hour's exposure to the compounds, cells were lysed and subjected to western blotting according to standard protocols (Polek, Talpaz et al. 2003). Antibodies for HIF-2α and Glyceraldehyde 3-Phosphate Dehydrogenase (GAPDH) were purchased from Cell Signaling Technology (Danvers, Mass.), whereas antibodies to iron responsive element binding protein 2 (IRP2) and Glutathione Peroxidase 4 (GPX4) were from Santa Cruz Biotechnology (Dallas, Tex.) and R&D Systems, Inc (Minneapolis, Minn.). Representative data in FIG. 3 show a dose-dependent effect of compounds in decreasing HIF-2α. Compounds also impact cellular iron sensing given by increased IRP2, which taken together indicate that cells sense decreased amounts of available iron. Representative data shown in FIG. 5 Part C show a dose dependent effect of the compounds on GPX4, which may indicate decreased resistance to ferroptosis.
# [2] = tested on: IRP2; assay: Western blot of treated 786-0 cells: IRP2; type: cell-based, human
# Method: as §1
# [3] = Bioavailability determination of KD025HCl in mice (plasma levels after IV or PO); type: in vivo; conditions: for MRT last: read-out: MRT0-last
# Method: To determine the bioavailability KD025HCl, serum concentrations of KD025HCl were determined after varying durations following oral or intravenous (IV) administration. Doses were validated by LC/MS/MS.
# For IV administration, 264 μl of N-Methyl-2-Pyrrolidone (NMP) was added to 1.221 mg of KD025HCl, and the solution vortexed and sonicated until complete dissolution. Then, 2.374 ml of 10% (v/v) solutol in water for injection was added, and the solution vortexed, then sonicated with a bath sonicator. The final dosing formulation of a brownish colored clear solution. A single 2 mg/kg dose (5 ml/kg) was administered IV each to nine male Swiss albino mice.
# For oral administration (PO), […] of Tween-80 was added to 3.38 mg of KD025HCl, triturated, then 2.893 ml of 0.5% methyl cellulose was added in parts with continuous trituration then vortexed. The final dosing formulation was a brownish colored clear solution. A single 10 mg/kg dose (10 ml/kg) was administered PO each to nine male Swiss albino mice.
# Calibration Curve & QC preparation: 2.0 μl of calibration curve standards were added to […] of blank matrix and precipitated with 200 μl of Acetonitrile containing an internal standard at 200 ng/ml. The solution was vortexed for 5 min at 850 rpm, then centrifuged at 4000 rpm for 5 min at 4° C. 110 μl of the supernatant was obtained and diluted with 130 μl of (Methanol:water, 1:1 v/v). Sample Preparation: 50 μl of sample was precipitated with 200 μl of Acetonitrile containing the internal standard at 200 ng/ml. The mixture was vortexed for 5 min at 850 rpm, then centrifuged at 4000 rpm for 5 min at 4° C. 110 μL of supernatant was obtained and diluted with 130 μL of (Methanol:water, 1:1 v/v).
# Using this procedure, the plasma levels of KD025HCl after either IV or PO administration was determined, and bioavailability as well as other pharmacokinetic parameters were determined and shown in Table 6.
# [4] = IV 2.00 mg/kg, 24.00 h, Swiss albino mice, BLQ: Below limits of quantitation
# [5] = IV 2.00 mg/kg, Swiss albino mice, plasma
# [6] = male, mouse, IV 2.00 mg/kg, Swiss albino mice, plasma
# [7] = male, mouse, PO 10.00 mg/kg, Swiss albino mice, plasma
smiles,measurement,setting,value
"COc1ccc(-c2nnc(Nc3nc4c(OC)nccc4[nH]3)o2)cc1OC [KD025HCl, N-(4-Methoxy-1H-imidazo[4,5-c]pyridin-2-yl)-5-(3,4-dimethoxyphenyl)-1,3,4-oxadiazol-2-amine]",HIF-2α protein relative to GAPDH (western blot),[1],decreases
same,IRP2 protein relative to GAPDH (western blot),"[2]; 786-0 CCRCC cells, 24 hours",increases
same,IRP2 protein (western blot) at higher concentrations,"[2]; 786-0 cells, higher concentrations of KD025HCl, FIG. 4 Part D",decrease
same,"Plasma concentration, individual animals (M1-, M2-, M3-)","[3]; IV 2.00 mg/kg, 0.08 h, Swiss albino mice, 2 mg/kg",3949.80 ng/mL and 3776.46 ng/mL
same,"Plasma concentration, individual animals (M1-, M2-, M3-)","[3]; IV 2.00 mg/kg, 0.25 h, Swiss albino mice, 2 mg/kg",2069.26 ng/mL and 3078.66 ng/mL
same,"Plasma concentration, individual animals (M1-, M2-, M3-)","[3]; IV 2.00 mg/kg, 0.50 h, Swiss albino mice, 2 mg/kg",1527.09 ng/mL and 2079.24 ng/mL
same,"Plasma concentration, individual animals (M1-, M2-, M3-)","[3]; IV 2.00 mg/kg, 1.00 h, Swiss albino mice, 2 mg/kg",282.26 ng/mL and 11135.53 ng/mL and 952.05 ng/mL
same,"Plasma concentration, individual animals (M1-, M2-, M3-)","[3]; IV 2.00 mg/kg, 2.00 h, Swiss albino mice, 2 mg/kg",277.23 ng/mL and 334.05 ng/mL and 611.15 ng/mL
same,"Plasma concentration, individual animals (M1-, M2-, M3-)","[3]; IV 2.00 mg/kg, 4.00 h, Swiss albino mice, 2 mg/kg",31.51 ng/mL and 45.40 ng/mL
same,"Plasma concentration, individual animals (M1-, M2-, M3-)","[3]; IV 2.00 mg/kg, 8.00 h, Swiss albino mice, 2 mg/kg",11.09 ng/mL and 28.55 ng/mL and 16.02 ng/mL
same,"Plasma concentration, Mean",[3]; [4],BLQ
same,"Plasma concentration, individual animals (M1-, M2-, M3-)",[3]; [4],BLQ
same,AUCExtra,[3]; [5],1.15%
same,Co,[3]; [5],5481.64 ng/mL
same,"Plasma concentration, individual animals (M1-, M2-, M3-)","[3]; PO 10.00 mg/kg, 0.25 h, Swiss albino mice, 10 mg/kg",1609.45 ng/mL and 742.75 ng/mL and 1428.60 ng/mL
same,"Plasma concentration, individual animals (M1-, M2-, M3-)","[3]; PO 10.00 mg/kg, 0.50 h, Swiss albino mice, 10 mg/kg",1712.09 ng/mL and 2056.44 ng/mL
same,"Plasma concentration, individual animals (M1-, M2-, M3-)","[3]; PO 10.00 mg/kg, 1.00 h, Swiss albino mice, 10 mg/kg",784.84 ng/mL and 1081.06 ng/mL
same,"Plasma concentration, individual animals (M1-, M2-, M3-)","[3]; PO 10.00 mg/kg, 2.00 h, Swiss albino mice, 10 mg/kg",861.31 ng/mL and 1052.53 ng/mL
same,"Plasma concentration, individual animals (M1-, M2-, M3-)","[3]; PO 10.00 mg/kg, 4.00 h, Swiss albino mice, 10 mg/kg",179.52 ng/mL and 94.08 ng/mL and 235.20 ng/mL
same,"Plasma concentration, individual animals (M1-, M2-, M3-)","[3]; PO 10.00 mg/kg, 6.00 h, Swiss albino mice, 10 mg/kg",93.52 ng/mL and 126.29 ng/mL
same,"Plasma concentration, individual animals (M1-, M2-, M3-)","[3]; PO 10.00 mg/kg, 8.00 h, Swiss albino mice, 10 mg/kg",50.78 ng/mL and 99.61 ng/mL
same,"Plasma concentration, Mean","[3]; PO 10.00 mg/kg, 24.00 h, Swiss albino mice, BLQ: Below limits of quantitation",BLQ
same,"Plasma concentration, individual animals (M1-, M2-, M3-)","[3]; PO 10.00 mg/kg, 24.00 h, Swiss albino mice, BLQ: Below limits of quantitation, 10 mg/kg",BLQ
same,AUCExtra,"[3]; PO 10.00 mg/kg, Swiss albino mice, plasma",9.83%
same,concentration at 0.08 h,"[3]; male, Swiss albino, mouse, plasma, iv, 2 mg/kg, IV 2.00 mg/kg, 0.08 h, read-out: Plasma concentration, Mean",4170 ng/mL
same,concentration at 0.08 h,"[3]; male, Swiss albino, mouse, plasma, iv, 2 mg/kg, IV 2.00 mg/kg, 0.08 h, read-out: Plasma concentration, individual animals (M1-, M2-, M3-)",4790 ng/mL
same,concentration at 0.25 h,"[3]; male, Swiss albino, mouse, plasma, iv, 2 mg/kg, IV 2.00 mg/kg, 0.25 h, read-out: Plasma concentration, Mean",2340 ng/mL
same,concentration at 0.25 h,"[3]; male, Swiss albino, mouse, plasma, iv, 2 mg/kg, IV 2.00 mg/kg, 0.25 h, read-out: Plasma concentration, individual animals (M1-, M2-, M3-)",1860 ng/mL
same,concentration at 0.5 h,"[3]; male, Swiss albino, mouse, plasma, iv, 2 mg/kg, IV 2.00 mg/kg, 0.50 h, read-out: Plasma concentration, Mean",1700 ng/mL
same,concentration at 0.5 h,"[3]; male, Swiss albino, mouse, plasma, iv, 2 mg/kg, IV 2.00 mg/kg, 0.50 h, read-out: Plasma concentration, individual animals (M1-, M2-, M3-)",1480 ng/mL
same,concentration at 1 h,"[3]; male, Swiss albino, mouse, plasma, iv, 2 mg/kg, IV 2.00 mg/kg, 1.00 h, read-out: Plasma concentration, Mean",790 ng/mL
same,concentration at 2 h,"[3]; male, Swiss albino, mouse, plasma, iv, 2 mg/kg, IV 2.00 mg/kg, 2.00 h, read-out: Plasma concentration, Mean",407 ng/mL
same,concentration at 4 h,"[3]; male, Swiss albino, mouse, plasma, iv, 2 mg/kg, IV 2.00 mg/kg, 4.00 h, read-out: Plasma concentration, Mean",38 ng/mL
same,concentration at 4 h,"[3]; male, Swiss albino, mouse, plasma, iv, 2 mg/kg, IV 2.00 mg/kg, 4.00 h, read-out: Plasma concentration, individual animals (M1-, M2-, M3-)",37.2 ng/mL
same,concentration at 8 h,"[3]; male, Swiss albino, mouse, plasma, iv, 2 mg/kg, IV 2.00 mg/kg, 8.00 h, read-out: Plasma concentration, Mean",18.6 ng/mL
same,Vd,"[3]; male, Swiss albino, mouse, plasma, iv, 2 mg/kg, IV 2.00 mg/kg, plasma, read-out: Vd",1.24 L/kg
same,Vd,"[3]; male, Swiss albino, mouse, plasma, iv, 2 mg/kg, IV 2.00 mg/kg, plasma, read-out: Vss",0.72 L/kg
same,concentration at 0.25 h,"[3]; male, Swiss albino, mouse, plasma, po, 10 mg/kg, PO 10.00 mg/kg, 0.25 h, read-out: Plasma concentration, Mean",1260 ng/mL
same,concentration at 0.5 h,"[3]; male, Swiss albino, mouse, plasma, po, 10 mg/kg, PO 10.00 mg/kg, 0.50 h, read-out: Plasma concentration, Mean",1910 ng/mL
same,concentration at 0.5 h,"[3]; male, Swiss albino, mouse, plasma, po, 10 mg/kg, PO 10.00 mg/kg, 0.50 h, read-out: Plasma concentration, individual animals (M1-, M2-, M3-)",1970 ng/mL
same,concentration at 1 h,"[3]; male, Swiss albino, mouse, plasma, po, 10 mg/kg, PO 10.00 mg/kg, 1.00 h, read-out: Plasma concentration, Mean",1140 ng/mL
same,concentration at 1 h,"[3]; male, Swiss albino, mouse, plasma, po, 10 mg/kg, PO 10.00 mg/kg, 1.00 h, read-out: Plasma concentration, individual animals (M1-, M2-, M3-)",1570 ng/mL
same,concentration at 2 h,"[3]; male, Swiss albino, mouse, plasma, po, 10 mg/kg, PO 10.00 mg/kg, 2.00 h, read-out: Plasma concentration, Mean",953 ng/mL
same,concentration at 2 h,"[3]; male, Swiss albino, mouse, plasma, po, 10 mg/kg, PO 10.00 mg/kg, 2.00 h, read-out: Plasma concentration, individual animals (M1-, M2-, M3-)",945 ng/mL
same,concentration at 4 h,"[3]; male, Swiss albino, mouse, plasma, po, 10 mg/kg, PO 10.00 mg/kg, 4.00 h, read-out: Plasma concentration, Mean",170 ng/mL
same,concentration at 6 h,"[3]; male, Swiss albino, mouse, plasma, po, 10 mg/kg, PO 10.00 mg/kg, 6.00 h, read-out: Plasma concentration, Mean",127 ng/mL
same,concentration at 6 h,"[3]; male, Swiss albino, mouse, plasma, po, 10 mg/kg, PO 10.00 mg/kg, 6.00 h, read-out: Plasma concentration, individual animals (M1-, M2-, M3-)",160 ng/mL
same,concentration at 8 h,"[3]; male, Swiss albino, mouse, plasma, po, 10 mg/kg, PO 10.00 mg/kg, 8.00 h, read-out: Plasma concentration, Mean",78.6 ng/mL
same,concentration at 8 h,"[3]; male, Swiss albino, mouse, plasma, po, 10 mg/kg, PO 10.00 mg/kg, 8.00 h, read-out: Plasma concentration, individual animals (M1-, M2-, M3-)",85.5 ng/mL
same,concentration at 24 h,"[3]; male, Swiss albino, mouse, plasma, po, 10 mg/kg, PO 10.00 mg/kg, 24.00 h, BLQ: Below limits of quantitation, read-out: Plasma concentration, individual animals (M1-, M2-, M3-)",1.79 ng/mL
same,bioavailability,"[3]; male, mouse, plasma, PO 10.00 mg/kg versus IV 2.00 mg/kg, Swiss albino mice, read-out: Bio availability (% f)",27.3%
same,AUC(0-inf),[3]; [6],3050 ng·h/mL
same,AUC(0-t),[3]; [6],3010 ng·h/mL
same,clearance,[3]; [6],10.9 mL/min/kg
same,half-life,[3]; [6],1.31 h
same,MRT last,[3]; [6],0.99 h
same,AUC(0-inf),[3]; [7],4160 ng·h/mL
same,AUC(0-t),[3]; [7],3750 ng·h/mL
same,Cmax,[3]; [7],1910 ng/mL
same,Tmax,[3]; [7],0.5 h
same,half-life,[3]; [7],3.61 h
same,MRT last,[3]; [7],2.03 h
